Data from US4650801A, “Anti-cancer compositions for delivering 5-fluorouracil” (Taiho Pharmaceutical Company, Ltd., priority 1978, dated 1987).

System: sarcoma 180
Assay: Anti-cancer effect on subcutaneously transplanted sarcoma 180 in mice
Assay type: in vivo, mouse
Procedure: The anti-cancer compositions of this invention are tested in mice by the following methods to determine acute toxicity, anti-cancer effect and therapeutic index
Tissues of sarcoma 180, 2×10^6, are subcutaneously transplanted in the back of male mice of ICR strain (6 mice in each group). A 5-fluorouracil (a) and uracil derivative (b) in the proportions listed in Tables 1-16 are suspended in a 5% solution of gum arabic to prepare a suspension. Twenty-four hours after the transplantation and during the following seven consecutive days the suspension is orally given to the animal once every day. On the 10th day after the transplantation, the tumor is removed from the body and weighed to calculate the average weight (T) of the tumors in the group to which the composition has been given and the corresponding weight (C) in the control group to determine the ratio T/C.

O=c1[nH]cc(F)c(=O)n1C1CCCO1 (stereo not shown) [Compound 6, 3-(2-Tetrahydrofuryl)-5-fluorouracil]
ED50 ((b) = 1(2-Tetrahydrofuryl)uracil, (b)/(a) mol ratio 1): 51 mg/kg | ED50 ((b) = 1(2-Tetrahydrofuryl)uracil, (b)/(a) mol ratio 2): 29 mg/kg | ED50 ((b) = 1(2-Tetrahydrofuryl)uracil, (b)/(a) mol ratio 5): 18 mg/kg | ED50 ((b) = 1Acetyluracil, (b)/(a) mol ratio 1): 32 mg/kg | ED50 ((b) = 1Acetyluracil, (b)/(a) mol ratio 2): 26 mg/kg | ED50 ((b) = 1Acetyluracil, (b)/(a) mol ratio 5): 16 mg/kg | ED50 ((b) = 1Cyclohexylcarbamoyluracil, (b)/(a) mol ratio 0.5): 55 mg/kg | ED50 ((b) = 1Cyclohexylcarbamoyluracil, (b)/(a) mol ratio 2): 46 mg/kg | ED50 ((b) = 1Cyclohexylcarbamoyluracil, (b)/(a) mol ratio 5): 33 mg/kg | ED50 ((b) = 1n-Hexylcarbamoyluracil, (b)/(a) mol ratio 1): 59 mg/kg | ED50 ((b) = 1n-Hexylcarbamoyluracil, (b)/(a) mol ratio 2): 41 mg/kg | ED50 ((b) = 1n-Hexylcarbamoyluracil, (b)/(a) mol ratio 10): 28 mg/kg | ED50 ((b) = 2'-Deoxycytidine, (b)/(a) mol ratio 1): 59 mg/kg | ED50 ((b) = 2'-Deoxycytidine, (b)/(a) mol ratio 2): 47 mg/kg | ED50 ((b) = 2'-Deoxycytidine, (b)/(a) mol ratio 10): 34 mg/kg | ED50 ((b) = 2'-Deoxyuridine, (b)/(a) mol ratio 1): 53 mg/kg | ED50 ((b) = 2'-Deoxyuridine, (b)/(a) mol ratio 2): 42 mg/kg | ED50 ((b) = 2'-Deoxyuridine, (b)/(a) mol ratio 20): 26 mg/kg | ED50 ((b) = 3Benzoyluracil, (b)/(a) mol ratio 1): 42 mg/kg | ED50 ((b) = 3Benzoyluracil, (b)/(a) mol ratio 2): 32 mg/kg | ED50 ((b) = 3Benzoyluracil, (b)/(a) mol ratio 10): 25 mg/kg | ED50 ((b) = 5Bromo-2'-deoxyuridine, (b)/(a) mol ratio 0.5): 49 mg/kg | ED50 ((b) = 5Bromo-2'-deoxyuridine, (b)/(a) mol ratio 2): 30 mg/kg | ED50 ((b) = 5Bromo-2'-deoxyuridine, (b)/(a) mol ratio 10): 22 mg/kg | ED50 ((b) = 5Bromouracil, (b)/(a) mol ratio 0.5): 39 mg/kg | ED50 ((b) = 5Bromouracil, (b)/(a) mol ratio 2): 26 mg/kg | ED50 ((b) = 5Bromouracil, (b)/(a) mol ratio 10): 21 mg/kg | ED50 ((b) = 5Iodouracil, (b)/(a) mol ratio 1): 26 mg/kg | ED50 ((b) = 5Iodouracil, (b)/(a) mol ratio 2): 17 mg/kg | ED50 ((b) = 5Iodouracil, (b)/(a) mol ratio 5): 11 mg/kg | ED50 ((b) = Cytidine, (b)/(a) mol ratio 1): 58 mg/kg | ED50 ((b) = Cytidine, (b)/(a) mol ratio 2): 39 mg/kg | ED50 ((b) = Cytidine, (b)/(a) mol ratio 10): 34 mg/kg | ED50 ((b) = Cytosine, (b)/(a) mol ratio 1): 56 mg/kg | ED50 ((b) = Cytosine, (b)/(a) mol ratio 2): 41 mg/kg | ED50 ((b) = Cytosine, (b)/(a) mol ratio 10): 24 mg/kg | ED50 ((b) = Orotic acid, (b)/(a) mol ratio 1): 69 mg/kg | ED50 ((b) = Orotic acid, (b)/(a) mol ratio 2): 61 mg/kg | ED50 ((b) = Orotic acid, (b)/(a) mol ratio 20): 46 mg/kg | ED50 ((b) = Thymidine, (b)/(a) mol ratio 0.5): 67 mg/kg | ED50 ((b) = Thymidine, (b)/(a) mol ratio 2): 63 mg/kg | ED50 ((b) = Thymidine, (b)/(a) mol ratio 10): 60 mg/kg | ED50 ((b) = Thymine, (b)/(a) mol ratio 0.5): 48 mg/kg | ED50 ((b) = Thymine, (b)/(a) mol ratio 2): 27 mg/kg | ED50 ((b) = Thymine, (b)/(a) mol ratio 10): 14 mg/kg | ED50 ((b) = Uridine, (b)/(a) mol ratio 1): 43 mg/kg | ED50 ((b) = Uridine, (b)/(a) mol ratio 2): 31 mg/kg | ED50 ((b) = Uridine, (b)/(a) mol ratio 20): 29 mg/kg | ED50 ((b)/(a) mol ratio 0 (alone), oral, 50% cancer inhibition (T/C)): 73 mg/kg
